From ChEMBL document CHEMBL5154693, “N-Methylpropargylamine-Conjugated Hydroxamic Acids as Dual Inhibitors of Monoamine Oxidase A and Histone Deacetylase for Glioma Treatment” (J Med Chem, 2022)
pIC50: −log10 of the molar value. The source made the active and inactive calls. The rule behind the calls is not given here.

Assays:
U-251 [1] = assay: cells; format: functional, cell-based; conditions: Homo sapiens, U-251, 48 h
Description: Cytotoxicity against human TMZ-resistant U251 cells assessed as inhibition of cell growth incubated for 48 hrs by MTT assay

U-251 [2] = assay: cells; format: functional, cell-based; conditions: Homo sapiens, U-251, 48 h; remark: listed apart in the source
Description: Cytotoxicity against human TMZ-sensitive U251 cells assessed as inhibition of cell growth incubated for 48 hrs by MTT assay

[3] = Toxicity in mouse bearing intracranial tumor assessed as last day of survival at 5 mg/kg, ip in presence of SAHA for 10 days (Rvb=16 days); format: organism-based; conditions: in vivo, 240 h, time 10 day
[4] = Cytotoxicity against mouse GL26 cells assessed as inhibition of cell growth incubated for 48 hrs by MTT assay; format: functional, cell-based; conditions: GL26, 48 h
[5] = Toxicity in mouse bearing intracranial tumor assessed as median survival time at 5 mg/kg, ip in presence of SAHA for 10 days (Rvb=13.8 days); format: organism-based; conditions: in vivo, 240 h, time 10 day
[6] = Toxicity in mouse bearing intracranial tumor assessed as last day of survival at 10 mg/kg, ip in presence of SAHA for 10 days (Rvb=16 days); format: organism-based; conditions: in vivo, 240 h, time 10 day
[7] = Toxicity in mouse bearing intracranial tumor assessed as assessed as median survival time at 10 mg/kg, ip for 14 days treatment started at 5 days post-infection (Rvb=12.8 days); format: organism-based; conditions: in vivo, 336 h, time 14 day
[8] = Toxicity in mouse bearing intracranial tumor assessed as assessed as median survival time at 10 mg/kg, ip treatment started at 7 dpi (Rvb=18.25 days); format: organism-based; conditions: in vivo, 438 h
[9] = target: T1, Amine oxidase [flavin-containing] B (Mus musculus, UniProt Q8BW75); assay: Inhibition of wild type MAO-B in mouse brain using methyl ester luciferin as substrate at 1 uM pre-incubated for 15 mins followed by substrate addition measured after 1 hr by MAO-Glo assay relative to control; format: tissue-based
T1 sequence (Q8BW75 whole entry): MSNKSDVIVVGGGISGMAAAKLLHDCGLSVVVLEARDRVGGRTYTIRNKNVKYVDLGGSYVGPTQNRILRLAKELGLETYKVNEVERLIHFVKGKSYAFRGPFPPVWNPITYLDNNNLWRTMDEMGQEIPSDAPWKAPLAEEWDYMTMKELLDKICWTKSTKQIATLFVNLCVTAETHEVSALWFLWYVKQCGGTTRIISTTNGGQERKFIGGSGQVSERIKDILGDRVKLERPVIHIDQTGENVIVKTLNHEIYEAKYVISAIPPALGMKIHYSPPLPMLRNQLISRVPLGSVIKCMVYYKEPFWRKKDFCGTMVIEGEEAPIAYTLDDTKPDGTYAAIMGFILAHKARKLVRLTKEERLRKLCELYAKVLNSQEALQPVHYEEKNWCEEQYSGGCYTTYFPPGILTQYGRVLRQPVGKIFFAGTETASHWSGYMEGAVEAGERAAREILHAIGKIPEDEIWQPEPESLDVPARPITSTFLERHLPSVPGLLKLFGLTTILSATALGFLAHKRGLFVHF

[10] = Toxicity in mouse bearing intracranial tumor assessed as median survival time at 10 mg/kg, ip for 10 days (Rvb= 13.8 days); format: organism-based; conditions: in vivo, 240 h, time 10 day
[11] = Toxicity in mouse bearing intracranial tumor assessed as last day of survival at 10 mg/kg,ip for 10 days (Rvb=16 days); format: organism-based; conditions: in vivo, 240 h, time 10 day
[12] = Toxicity in mouse bearing intracranial tumor assessed as assessed as […] at 10 mg/kg, ip for 14 days treatment started at 5 days post-infection (Rvb=14 days); format: organism-based; conditions: in vivo, 336 h, time 14 day
Mus musculus [13] = assay: In vivo inhibition of MAO-A in mouse xenografted with mouse GL26 assessed as decrease in MAO activity in tumor at 10 mg/kg by radiometric analysis; format: functional, organism-based
[14] = Toxicity in mouse bearing intracranial tumor assessed as median survival time at 10 mg/kg, ip in presence of SAHA for 10 days (Rvb=13.8 days); format: organism-based; conditions: in vivo, 240 h, time 10 day
Mus musculus [15] = assay: In vivo inhibition of MAO-A in mouse xenografted with mouse GL26 cells as decrease in MAO activity in brain at 10 mg/kg by radiometric analysis; format: functional, organism-based
[16] = Toxicity in mouse bearing intracranial tumor assessed as last day of survival at 10 mg/kg, ip treatment started at 7 dpi (Rvb=19 days); format: organism-based; conditions: in vivo, 456 h

SMILES: C#CCN(C)CCCOc1ccc(Cl)cc1Cl [CLORGILINE]
- pIC50 (U-251 [1]): 3.87
- pIC50 (U-251 [2]): 3.76
- Survival [3]: 14 days
- pIC50 [4]: 3.77
- MST [5]: 13.8 days
- Survival [6]: 18 days
- Survival [7]: 15 days
- MST [8]: 17.25 days
- inhibition at 1 µM [9]: < 25%
- Survival [10]: 13.8 days
- Survival [11]: 17 days
- MST [12]: 11.75 days
- Activity (Mus musculus [13]): Active
- MST [14]: 14.4 days
- Activity (Mus musculus [15]): Active
- Survival [16]: 19 days
